Laboratory results from US8304422B2, “Compositions and methods for inhibition of the JAK pathway” (Rigel Pharmaceuticals, Inc., priority 2007, dated 2012).

tested on: BaF3 V617F cells; UKE-1; test: Proliferation Assay (Cell Titer-Glo; Example 7); type: cell-based; conditions: proliferation 72 hours, inhibit JAK2 activity, cell line (BaF3 V617F or UKE-1) not stated
Procedure, shortened: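 BaF3 V617F cells (RPMI, 10% FBS) and UKE-1 cells (Iscove's DMEM, 10% FBS, 10% equine serum, 1 uM hydrocortisone) were exposed to 3-fold serially diluted compound in duplicate for 72 hours at 37 °C. Viable cell number quantified by Cell Titer-Glo luminescence; IC50 reported.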

Which IC50 does the source give for `CCc1cnc(Nc2ccc(N3CCN(C)CC3)cc2)nc1Nc1ccc(CNS(=O)(=O)C2CC2)cc1` [II-86, N4-[4-(N-Cyclopropylsulfonylamino)methylphenyl]-5-ethyl-N2-[4-(4-methyl-1-piperazinyl)phenyl]-2,4-pyrimidinediamine] here?
Its IC50 is 724 nM.

`CCN1CCN(c2ccc(Nc3ncc(Cl)c(Nc4ccc(CCNS(=O)(=O)C5CC5)cc4)n3)c(C(F)(F)F)c2)CC1` [II-57, 5-Chloro-N4[4-(N-cyclopropylsulfonylamino)ethylphenyl]-N2-[4-(4-ethylpiperazino)-2-trifluoromethylphenyl]-2,4-pyrimidinediamine] was tested. Which IC50 did it give?
The IC50 was 1700 nM.

`COc1cc(Nc2ncc(C)c(Nc3ccc(CNS(=O)(=O)N(C)C)cc3)n2)cc(C)c1OC` [II-100, 4-[(4-(Dimethylamino)sulfonylamino)methylphenyl]-N2-(3,4-dimethoxy-5-methylphenyl)-5-methyl-2,4-pyrimidinediamine] was tested. Which IC50 did it give?
The IC50 was 179 nM.

For `CN1CCN(c2ccc(Nc3ncc(Cl)c(Nc4ccc(CCNS(=O)(=O)C5CC5)cc4)n3)c(F)c2)CC1` [II-56, 5-Chloro-N4[4-(N-cyclopropylsulfonylamino)ethylphenyl]-N2-[4-(4-methylpiperazino)-2-fluorophenyl]-2,4-pyrimidinediamine], which IC50 is on record?
Its IC50 is 639 nM.

With `Cc1cnc(Nc2cc(C)c(OC(C)C)c(C)c2)nc1Nc1ccc(CNS(=O)(=O)NC2CC2)cc1` [II-164, N4-[4-((N-Cyclopropylamino)sulfonylamino)methylphenyl]-N2-[3,5-dimethyl-4-(1-methyl)ethoxyphenyl]-5-methyl-2,4-pyrimidinediamine] as the compound, how does the IC50 read?
Its IC50 is 94.8 nM.

For “5-Chloro-N2-[3-methyl-4-(methyl-1-piperazinyl)phenyl]-N4-[1,2,3,4-tetrahydro-2-(ethylsulfonyl)-5-isoquinolinyl]-2,4-pyrimidinediamine [VI-2]”, which IC50 is on record?
Its IC50 is 2800 nM.

Which IC50 does the source give for “5-Bromo-N4-[3-(N-tert-butylsulfonyl)phenyl]-N2-[4-(4-methylpiperazine)-phenyl]-2,4-pyrimidinediamine [I-18]” here?
Its IC50 is 832 nM.

Which IC50 does the source give for `CCNS(=O)(=O)NCc1cccc(Nc2nc(Nc3ccc(N4CCN(C)CC4)cc3)ncc2Cl)c1` [II-131, 5-Chloro-N4-[(3-(ethylamino)sulfonylamino)methylphenyl]-N2-[4-(4-methyl-1-piperazinyl)phenyl]-2,4-pyrimidinediamine] here?
The IC50 was 151 nM.

With `Cc1cc(CNS(=O)(=O)C2CC2)ccc1Nc1nc(Nc2ccc(N3CCN(C)CC3)cc2)ncc1Cl` [II-152, 5-Chloro-N4-[2-methyl-4-(N-cyclopropylsulfonylamino)methylphenyl]-N2-[4-(4-methyl-1-piperazinyl)phenyl]-2,4-pyrimidinediamine] as the compound, how does the IC50 read?
The IC50 was 357 nM.

Which IC50 does the source give for `Cc1cnc(Nc2cc(C)c(OC(C)C)c(C)c2)nc1Nc1ccc(CNS(=O)(=O)C2CC2)cc1` [II-219, 5-Methyl-N4-[4-(N-cyclopropylsulfonylamino)methylphenyl]-N2-[3,5-dimethyl-4-(2-propoxy)phenyl]-2,4-pyrimidinediamine] here?
The IC50 was 114 nM.

For “N4-[4-(N-Cyclopropylsulfonylamino)methylphenyl]-N2-[3,4-dimethyl-4-(2-(4-morpholinyl)ethoxy)phenyl]-5-methyl-2,4-pyrimidinediamine [II-159]”, which IC50 is on record?
The IC50 was 47.6 nM.

`Cc1cc(Nc2ncc(C)c(Nc3ccc(CNS(=O)(=O)C4CC4)cc3)n2)ccc1N1C[C@@H]2C[C@H]1CN2C` [II-184, N4-[4-(N-Cyclopropylsulfonylamino)methylphenyl]-5-methyl-N2-[3-methyl-4-[(1S,4S)-5-methyl-2,5-diazabicyclo[2.2.1]hept-2-yl]phenyl]-2,4-pyrimidinediamine] was tested. Which IC50 did it give?
Its IC50 is 892 nM.

Which IC50 does the source give for `CCNS(=O)(=O)NCc1ccc(Nc2nc(Nc3cc(Cl)c(OC)c(OC)c3)ncc2C)cc1` [II-121, N2-(3-Chloro-4,5-dimethoxyphenyl)-N4-[(4-(ethylamino)sulfonylamino)methylphenyl]-5-methyl-2,4-pyrimidinediamine] here?
The IC50 was 363 nM.

`CCNS(=O)(=O)NCc1cccc(Nc2nc(Nc3cc(C)c(OCC)c(C)c3)ncc2Cl)c1` [II-130, 5-Chloro-N2-(3,5-dimethyl-4-ethoxyphenyl)-N4-[(3-(ethylamino)sulfonylamino)methylphenyl]-2,4-pyrimidinediamine] was tested. Which IC50 did it give?
Its IC50 is 140 nM.

How did the IC50 turn out when `CCNS(=O)(=O)NCc1cccc(Nc2nc(Nc3ccc(N4CCN(C)CC4)cc3)ncc2C)c1` [II-135, N4-[(3-(Ethylamino)sulfonylamino)methylphenyl]-5-methyl-N2-[4-(4-methyl-1-piperazinyl)phenyl]-2,4-pyrimidinediamine] was run?
Its IC50 is 267 nM.

For `COc1cc(Nc2ncc(Cl)c(Nc3ccc(CNS(=O)(=O)C4CC4)cc3)n2)cc(C)c1OC` [II-199, 5-Chloro-N4-[4-(N-cyclopropylsulfonylamino)methylphenyl]-N2-[3,4-dimethoxy-5-methylphenyl]-2,4-pyrimidinediamine], which IC50 is on record?
Its IC50 is 57.2 nM.

Which IC50 does the source give for `COc1c(C)cc(Nc2ncc(Cl)c(Nc3cccc(CNS(=O)(=O)C4CC4)c3)n2)cc1C` [II-192, 5-Chloro-N4-[3-(N-cyclopropylsulfonylamino)methylphenyl]-N2-[3,5-dimethyl-4-methoxyphenyl]-2,4-pyrimidinediamine] here?
Its IC50 is 378 nM.

“5-Chloro-N4-[3-(N-cyclopropylsulfonylamino)methylphenyl]-N2-[4-(N-methylpiperizin-4-yl)phenyl]-2,4-pyrimidinediamine [II-191]” was tested. Which IC50 did it give?
Its IC50 is 466 nM.

“5-Chloro-N4-[3-(N-tert-butylsulfonyl)phenyl]-N2-[3,5-dimethyl-4-(2-(1-morpholino)ethoxyphenyl]-2,4-pyrimidinediamine [I-21]” was tested. Which IC50 did it give?
Its IC50 is 243 nM.

With “5-Chloro-N4-[4-(N-cyclopropyl-N-propionylsulfonylamino)methylphenyl]-N2-[3,5-dimethyl-4-methoxyphenyl]-2,4-pyrimidinediamine [II-218]” as the compound, how does the IC50 read?
The IC50 was 248 nM.

For `CCNS(=O)(=O)NCc1ccc(Nc2nc(Nc3cc(C)c(OC)c(OC)c3)ncc2C)cc1` [II-117, N2-(3,4-Dimethoxy-5-methylphenyl)-N4-[(4-(ethylamino)sulfonylamino)methylphenyl]-5-methyl-2,4-pyrimidinediamine], which IC50 is on record?
Its IC50 is 208 nM.

With `CCS(=O)(=O)N1CCc2c(cccc2Nc2nc(Nc3ccc(N4CCN(C)CC4)cc3)ncc2Cl)C1` [VI-1, 5-Chloro-N2-[4-(4-methyl-1-piperazinyl)phenyl]-N4-[1,2,3,4-tetrahydro-2-(ethylsulfonyl)-5-isoquinolinyl]-2,4-pyrimidinediamine] as the compound, how does the IC50 read?
Its IC50 is 473 nM.

With `Cc1cnc(Nc2cnccc2N2CCN(C)CC2)nc1Nc1ccc(CNS(=O)(=O)C2CC2)cc1` [II-215, 5-Methyl-N4-[4-(N-cyclopropylsulfonylamino)methylphenyl]-N2-[4-(N-methylpiperizin-4-yl)pyridine-3-yl]-2,4-pyrimidinediamine] as the compound, how does the IC50 read?
Its IC50 is 1520 nM.

Which IC50 does the source give for `CCc1cnc(Nc2ccc(N3CCC(F)(F)CC3)cc2)nc1Nc1ccc(CNS(=O)(=O)C2CC2)cc1` [II-87, N4-[4-(N-Cyclopropylsulfonylamino)methylphenyl]-N2-[4-(4,4-difluoro-1-piperidinyl)phenyl]-5-ethyl-2,4-pyrimidinediamine] here?
The IC50 was 5270 nM.

How did the IC50 turn out when `O=S(=O)(NCc1cccc(Nc2nc(Nc3ccc(-c4cccnc4)cc3)ncc2Cl)c1)C1CC1` [II-194, 5-Chloro-N4-[3-(N-cyclopropylsulfonylamino)methylphenyl]-N2-[4-(3-pyridinyl)phenyl]-2,4-pyrimidinediamine] was run?
The IC50 was 1340 nM.

For `Cc1cnc(Nc2ccc(-c3cccnc3)cc2)nc1Nc1ccc2c(c1)[C@H](NS(C)(=O)=O)CC2` [V-12, (1R)-5-Methyl-N4-[1-(methylsulfonyl)aminoindan-6-yl]-N2-[4-(3-pyridinyl)phenyl]-2,4-pyrimidinediamine], which IC50 is on record?
Its IC50 is 668 nM.

For `CCNS(=O)(=O)NCc1ccc(Nc2nc(Nc3ccc(N4CCN(C)CC4)cc3)ncc2Cl)cc1` [II-114, 5-Chloro-N4-[(4-(ethylamino)sulfonylamino)methylphenyl]-N2-[4-(4-methyl-1-piperazinyl)phenyl]-2,4-pyrimidinediamine], which IC50 is on record?
The IC50 was 180 nM.

With `CN1CCN(c2ccc(Nc3ncc(Cl)c(Nc4ccc(CNS(N)(=O)=O)cc4)n3)cc2)CC1` [II-148, N4-[4-(Aminosulfonylamino)methylphenyl]-5-chloro-N2-[4-(4-methyl-1-piperazinyl)phenyl]-2,4-pyrimidinediamine] as the compound, how does the IC50 read?
The IC50 was 1320 nM.

`Cc1cnc(Nc2cncc(C)c2N2CCN(C)CC2)nc1Nc1ccc2c(c1)S(=O)(=O)NCC2` [VII-6, 5-Methyl-N4-[3,4-dihydro-1,1-dioxide-2H-1,2-benzothiazin-7-yl]-N2-[5-methyl-4-(N-methylpiperizin-4-yl)pyridine-3-yl]-2,4-pyrimidinediamine] was tested. Which IC50 did it give?
Its IC50 is 1900 nM.

How did the IC50 turn out when `Cc1cnc(Nc2c(C)cc(OC(C)C)cc2C)nc1Nc1ccc(CCNS(=O)(=O)C2CC2)cc1` [II-64] was run?
Its IC50 is 548 nM.

How did the IC50 turn out when `COc1c(C)cc(Nc2ncc(C)c(Nc3ccc(CNS(=O)(=O)NC4CC4)cc3)n2)cc1C` [II-162, N4-[4-((N-Cyclopropylamino)sulfonylamino)methylphenyl]-N2-(3,5-dimethyl-4-methoxyphenyl)-5-methyl-2,4-pyrimidinediamine] was run?
Its IC50 is 134 nM.

With `CCS(=O)(=O)N1CCc2c(cccc2Nc2nc(Nc3cc(C)c(OC)c(C)c3)ncc2Cl)C1` [VI-4, 5-Chloro-N2-(3,5-dimethyl-4-methoxyphenyl)N4-[1,2,3,4-tetrahydro-2-(ethylsulfonyl)-5-isoquinolinyl]-2,4-pyrimidinediamine] as the compound, how does the IC50 read?
Its IC50 is 1210 nM.

Which IC50 does the source give for `COc1c(C)cc(Nc2ncc(C)c(Nc3ccc4c(c3)S(=O)(=O)NCC4)n2)cc1C` [VII-10, 5-Methyl-N4-[3,4-dihydro-1,1-dioxide-2H-1,2-benzothiazin-7-yl]-N2-[3,5-dimethyl-4-methoxyphenyl]-2,4-pyrimidinediamine] here?
Its IC50 is 144 nM.

With `CN1CCN(c2ccc(Nc3ncc(Cl)c(Nc4ccc(CCNS(=O)(=O)C5CC5)cc4)n3)cn2)CC1` [II-53, 5-Chloro-N4[4-(N-cyclopropylsulfonylamino)ethylphenyl]-N2-[4-(4-methylpiperazino)pyrido]-2,4-pyrimidinediamine] as the compound, how does the IC50 read?
Its IC50 is 1980 nM.

Which IC50 does the source give for “5-Chloro-N4-[4-[N-(Cyclopropylsulfonyl)-N′-((3-ethoxycarbonyl)propion-1-yl)amino]methylphenyl]-N2-(3,5-dimethyl-4-methoxyphenyl)-2,4-pyrimidinediamine [II-140]” here?
The IC50 was 251 nM.
